Assay results published in PubChem BioAssay AID602280 (Broad Institute, 2012).
Activity calls are given as the source filed them.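 Rule for the calls: active = compound whose fitted growth curve, scaled so untreated is 0 and control 100, reaches 40 within the tested doses; inconclusive = flat curve between 30 and 70 percent, or unreliable fit; inactive = the rest, including drops in growth.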

Each molecule was assayed on S. cerevisiae GAL-BEM3 growth rescue, OD600, 48 h (assay: rescue of BEM3-induced yeast toxicity, dose response, S. cerevisiae, dry powder, plate reader (AID 602280)).

Compound | AC40
Cc1ccccc1CSc1nsc(N)n1 | > 26 µM (inactive)
O=c1c2ccccc2[nH]c(=S)n1CCC1=CCCCC1 | 22 µM
Fc1cc(NCc2ccccc2)nc(NCc2ccccc2)n1 | 8.75 µM
CC(C)c1ccc(C2NC(=O)c3ccccc3O2)cc1 (centres undefined) | 2.3 µM
